# System: neuropathy model mice
# Assay: Von Frey filament stimulation test in streptozotocin-induced neuropathy animal model
# Type: in vivo, ICR mice
# Conditions: oral, 10, 20, 40 and 80 mg/kg in physiological saline; tested 1, 2, 3, 4 and 5 hours after administration; FIG. 1
# Description: First, a neuropathy animal model was prepared by administering streptozocin. Specifically, streptozotocin was intraperitoneally administered to 4-week-old ICR mice at the concentration of 75 mg/kg. Five weeks after the administration, the expression of neuropathy was confirmed through the level of blood glucose and Von Frey filament stimulation tests, and the mice were used for the following experiments.
# Specifically, trimethobenzamide was dissolved in physiological saline to prepare trimethobenzamide solutions with the concentrations of 10, 20, 40 and 80 mg/kg. The prepared trimethobenzamide solutions were orally administered to neuropathy model mice, and Von Frey filament stimulation test was performed 1, 2, 3, 4 and 5 hours after the administration to confirm the inhibitory effect on neuropathy.
# Specifically, trimethobenzamide or tramadol was dissolved in physiological saline to prepare trimethobenzamide solution with the concentration of 60 mg/kg, or tramadol solution with the concentration of 20 mg/kg. After co-administration of the tramadol solution with the concentration of 20 mg/kg and the trimethobenzamide solution with the concentration of 20, 40 or 60 mg/kg solution, the effect of the co-administration was confirmed. […]
structure (smiles),measurement,value
COc1cc(C(=O)NCc2ccc(OCCN(C)C)cc2)cc(OC)c1OC [trimethobenzamide],"inhibitory effect on neuropathy (pain), trimethobenzamide administered alone",significant effect on the inhibition of neuropathy in a concentration-dependent manner
